The results in this text go back to US4806540A, “1-heteroaryl-4-aryl-pyrazole microbicides” (Bayer Aktiengesellschaft, priority 1985, dated 1989).

Assay [1] concerns Staphylococcus aureus. Nature of the assay: Action against bacteria, MIC (agar). The conditions noted are these: 336 h, agar containing broth, 28° C., 2 weeks. It counts as cell-based. The procedure: (§1) The nutrient medium is then infected with in each case the test organisms listed in Table C and the infected medium is kept at 28° C. and 60 to 70% relative atmospheric humidity for 2 weeks. […] The compounds according to Preparation Examples 2, 6a, 12a, 9b, 13 and 14 show good actions.

For assay [2], the system named is Escherichia coli. Nature of the assay: Action against bacteria, MIC (agar). It counts as cell-based. The conditions noted are these: 336 h, agar containing broth, 28° C., 2 weeks. The procedure: as §1
Assay [3] relates to fungi: Alternaria tenuis, Aspergillus niger, Aureobasidium pullulans, Chaetomium globosum, Cladosporium cladoporioides, Lentinus tigrinus, Penicillium glaucum …. The experiment in a line: Minimum inhibitory concentrations (MIC), activity against fungi (agar). It counts as cell-based. The conditions noted are these: agar from beer wort and peptone; 28° C., 60 to 70% humidity, 2 weeks; 0.1 mg/l to 5,000 mg/l. The procedure: Active compounds according to the invention are added in concentrations of 0.1 mg/l to 5,000 mg/l to an agar prepared from beer wort and peptone. After storage at 28° C. and 60 to 70% relative atmospheric humidity for 2 weeks, the MIC is determined. […] Good actions of the listed test organisms are shown, for example, by the compounds according to Preparation Examples 2, 6a, 12a, 9b, 24 and 25: […]

Assay [4] deals with Pyricularia oryzae. It counts as in vivo, Pyricularia oryzae (on young rice plants). The following applies: protective, rice plants; evaluation 4 days after inoculation.
The test system of assay [5] is bacteria. The experiment in a line: Action against bacteria (test organisms of Table C), result in words. The class given is cell-based, Escherichia coli, Staphylococcus aureus. The following applies: 1 to 5,000 ppm; agar containing broth, 28° C., 2 weeks. The procedure: as §1

Values after ≈ are worked out from the molar mass of the structure shown.

Turning to `CS(=O)(=O)n1cc(-c2ccccc2)c(=O)n1-c1ccccn1` [Example 24, 1-pyrid-2-yl-2-methylsulphonyl-4-phenyl-pyrazolin-5-one], the MIC in assay [1] and in assay [2] was 50 µg/mL (≈ 159 µM) in each case.
On to `O=c1c(-c2ccccc2)cn(S(=O)(=O)c2ccccc2)n1-c1ccccn1` [Example 25], for which the “action against the listed test organisms (fungi)” value in assay [3] was “Good actions”. For the same compound, the figures for the MIC in assay [1] and in assay [2] were 20 µg/mL (≈ 53 µM) and 1000 µg/mL (≈ 2650 µM), respectively.
Turning to “mixture of 1-pyrid-2-yl-2-acetyl-4-phenyl-pyrazolin-5-one and 1-pyrid-2-yl-4-phenyl-5-acetoxypyrazole [Example 1]”, the “activity compared with the prior art” value in assay [4] is reported as “clearly superior activity compared with the prior art”.
As to `CC(=O)n1cc(-c2ccccc2)c(=O)n1-c1ncccn1` [Example 2, 1-Pyrimid-2-yl-2-acetyl-4-phenyl-pyrazol-5-one], in assay [5], the action against bacteria result was “good actions”. The “action against the listed test organisms (fungi)” value in assay [3] is listed as “Good actions”. The “activity compared with the prior art” value in assay [4] is listed as “clearly superior activity compared with the prior art”. Also, the MIC (commonly the smallest concentration in the dilution series that meets the test's criterion for growth inhibition) came to 1000 µg/mL (≈ 3570 µM) in assay [1] and 750 µg/mL (≈ 2680 µM) in assay [2].
